Results reported in patent US20110289043A1, “COMPUTATIONAL METHODS AND COMPOSITIONS” (Brown University Research Foundation, priority 2010, published 2011).

Key:
[1] = tested on: P. falciparum-infected RBCs (iRBCs) and co-cultured uninfected RBCs (uRBCs); test: Microfluidic deformability (cell mobility) of RBCs after artesunate drug treatment; format: cell-based, human; details: for separation resolution between iRBCs and uRBCs: after artesunate drug treatment; for effect on RBC deformability (cell mobility): artesunate 0.01 to 0.1 μg/ml, 2, 4 and 6 hours
Method: FIG. 60 provides cell mobility plots for both infected cells (shown by diamond symbols) and co-cultured uninfected cells (shown by circle symbols) with and without Artesunate drug treatment. The drug effect was traced at 2, 4 and 6 hours after drug treatment. Measurements were done at physiologically relevant dosage from 0.01 to 0.1 μg/ml.
The deformability of both iRBCs and uRBCs were measured at 2, 4 and 6 hours after artesunate drug treatment (FIG. 60). A synchronized culture of rings with ˜15% parasitemia was resuspended at 0.1% hematocrit in malaria culture medium containing 0.01, 0.05 or 0.1 μg/ml of artesunate.
P. falciparum 3D7A parasites (from Malaria Research and Reference Reagent Source, American Type Culture Collection) were cultured in leukocyte-free human RBCs (Research Blood Components, Brighton Mass.) in RPMI 1640 complete medium as described (Trager and Jensen J. parasitol. 2005). Parasites cultures were synchronized by sorbitol lysis (Lambros, C 1979 J. parasitol.) two hours after merozoite invasion.
1× Phosphate buffered saline (PBS) was mixed with 1% w/v Bovine Serum Albumin (BSA) (Sigma-Aldrich, St. Louis, Mo.) as a stock solution and was fresh made on every experimental day. For experiments tracking fluid flow velocity, 200 nm FluoSpheres europium luminescent microspheres (Molecular Probes, Eugene, Oreg.) were used at a final concentration of 5.0×10^−4 percent solids. For experiments involving only healthy RBCs, fresh whole blood (Research Blood Components, Brighton, Mass.) was used at 100 times dilution (i.e. 1 μl whole blood with 99 μl stock solution). For experiments involving parasitized cells, 1 ml of cultured cells were spun down at 1,000 rpm for 5 minute; 1 μl of the pellet was then aliquot to 200 μl stock solution.
10 μl of 1×10^−6M thiazole orange Orange (Invitrogen, Carlsbad, Calif.), which stains the RNA of the cell, was added to the aforementioned 200 μl iRBC solution 20 minutes before the experiment. The infected cells would appear fluorescent under the GFP filter set whereas the uninfected cells were seen as dark shadows.
To control the ambient temperature, the microscope surface was replaced by a heating chamber (Olympus), which was preheated to a desired temperature range (i.e. 30-40° C.) for 30 minutes before the beginning of every experiment. Meanwhile, the PBS-BSA stock solution was injected into the device to coat the PDMS walls to prevent adhesion. This filling step need not be done inside the heating chamber, but the PBS-BSA filled device needed to be placed into the heating chamber at least 5 minutes before loading 10 μL of diluted blood sample. During temperature calibration phase, a thermal meter was used to probe the exact temperature inside the heating chamber. When the temperature needed to be adjusted to a different value, at least 5 minutes of waiting time was required to ensure a new stable ambient temperature.
To apply a constant pressure gradient across the device, the pressure difference between inlet and outlet reservoir was generated hydrostatically by fixing the difference between inlet and outlet water column height (FIG. 55A).
To capture the movement of RBCs inside the microchannels, a CCD camera (Hamamatsu Photonics, C4742-80-12AG, Japan) was connected to the inverted fluorescent microscope (Olympus IX71, Center Valley, Pa.). Images were automatically acquired by IPLab (Scanalytics, Rockville, Md.) at 100 ms time interval and the post-imaging analysis was done using imageJ. The mobility of individual RBCs was defined as the distance the cells moved divide by the time in seconds.

[2] = tested on: RBCs; test: Deformability cytometer: velocity/passage of glutaraldehyde-treated RBCs through constriction channels; format: cell-based, human
Method: FIG. 5B depicts the results of an experiment evaluating the velocity at different glutaraldehyde concentrations of RBCs moving through the two pore geometries. RBCs were treated with the indicated concentrations of glutaraldehyde for 30 minutes in PBS and then washed 3 times. The pressure difference/length was approximately 0.61 Pa/μm.
PBS was mixed with 0.2% w/v Pluronic F-108 (BASF, Mount Olive, N.J.) and 1% w/v Bovine Serum Albumin (BSA) (Sigma-Aldrich, St. Louis, Mo.) as a stock solution to prevent RBC adhesion to the device walls. For the fluorescent bead experiments, 200 nm FluoSpheres europium luminescent microspheres (Molecular Probes, Eugene, Oreg.) diluted to a final concentration of 1.25×10^−5 percent solids were used.
In experiments involving blood, 1 μl of whole blood (−50% hematocrit) was diluted in 100 μl of the PBS-pluronic-BSA solution for all of the experiments. In experiments involving parasites that express GFP, no further treatment was performed. In experiments involving healthy RBCs, 1 μl of whole blood (Research Blood Components, Brighton, Mass.), 1 μl of 50 μg/ml of Cell Tracker Orange (Invitrogen, Carlsbad, Calif.), and 98 μl of PBS were mixed with the indicated concentration of glutaraldehyde and allowed to sit for 30 minutes. The sample was then washed 3 times with the PBS-Pluronic-BSA solution. In experiments involving reticulocytes, 1 μl of whole blood, 89 μl of the PBS-Pluronic-BSA solution, and 10 μl of 1×10^−6M thiazole orange were mixed and allowed to sit for 20 minutes before starting experiments. Videos were obtained in which reticulocytes appear as uniformly fluorescent cells under the GFP filter set, while mature RBCs appear as shadows.
The PBS-Pluronic-BSA solution was pumped through the device for 30 minutes to coat the device walls with Pluronic and BSA. The RBC-PBS-Pluronic-BSA suspension was then injected into the device. Differences in pressure between the two reservoirs were generated hydrostatically by a difference in water column height. […]

[3] = tested on: WT T cells; test: FACS analysis of phenotype of T cells induced to migrate by CCL19; format: cell-based, mouse; details: after CCL19 exposure (100 ng/mL) for seven hours
Method: FIG. 68 depicts results of a FACS analysis of phenotype of naïve WT T cells induced to migrate by the chemokine CCL19. T cells were first gated on PI to exclude dead cells. The cell samples tested were naïve T cells not exposed to CCL 19 (A, D), cells that remained in the insert after CCL19 exposure (100 ng/mL) for seven hours (B, E), and cells that migrated across the insert membrane after the same chemokine treatment (C, F).
(§1) Cells from the peripheral lymph nodes and the spleen of Balb/c mice and WAS−/− mice on Balb/c background were pooled and enriched using the EasySep Mouse CD8+ T Cell Enrichment Kit from STEMCELL Technologies (British Columbia, Canada). Enrichment was confirmed using fluorescence-activated cell sorting (FACS) by staining the cells with FITC/anti-Thy1.2 and PE/anti-CD8α antibodies (Abs). The memory T cell population was assessed by evaluating the expression of CD44 and CD62L via FACS. T cells in an activation medium with 100 units/mL IL-2 and 1% anti-CD28 Ab were activated by plate-bound anti-CD3 Abs for 4 day at 37° C. The activation medium included RPMI with 10% FBS, 10 mM HEPES (1M), 1% NEAA, 1% sodium pyruvate (100 mM), 50 μM (β-mercaptoethanol, 4 mM L-glutamine, and 100 μg/mL Pen/Strep. Cell activation was verified via FACS measurement of CD25.

[4] = tested on: WT T cells; test: Micropipette aspiration of CCL19-stimulated migratory T cells; format: cell-based, mouse
Method: Enriched WT and WAS−/− T cells in DMEM with 1% BSA and 0.1% Pen/Strep were induced to migrate through polycarbonate Transwell inserts (Costar, Cambridge, Mass.) with 5-μm pores in a 24-well plate toward a CCL19 chemokine source (R&D Systems, Minneapolis, Minn.). Inserts contained 5×10^5 cells in 100 μL of medium, and wells contained 1 mL of medium with either no CCL19 or 100 ng/mL of CCL19. Cells were allowed to migrate for ˜7 hours at 37° C., and those that crossed the membrane were collected and used for MPA studies.
3×10^5 cells in 100 μL RPMI with 10% FBS and 1% HEPES was stained with 10 μL trypan blue. The mixture was added to 600 μL of either the RPMI medium or the T cell activation medium with IL-2 for naïve and activated T cell testing. Migratory T cells were tested in the medium used for migration. The MPA device was based on the design of Hochmuth et al (18). The aspiration rate and volume were 36 mL/hr and 2 mL, corresponding to a total pressure of ˜400 Pa. The cell movement in the micropipette was recorded with a CCD camera. Aspirations were performed at approximately room temperature.
MPA data were fitting using the half-space model (77) described by the expressions: […]

[5] = tested on: WAS−/− T cells; test: In vitro Transwell cell migration toward CCL19; format: cell-based, mouse; details: after seven hours of exposure to CCL19 (100 ng/mL), 5-μm pore Transwell
Method: as §1, with “CD25. Enriched WT and WAS−/− T cells in DMEM with 1% BSA and 0.1% Pen/Strep were induced to migrate through polycarbonate Transwell inserts (Costar, Cambridge, Mass.) with 5-μm pores in a 24-well plate toward a CCL19 chemokine source (R&D Systems, Minneapolis, Minn.). Inserts contained 5×10^5 cells in 100 μL of medium, and wells contained 1 mL of medium with either no CCL19 or 100 ng/mL of CCL19. Cells were allowed to migrate for ˜7 hours at 37° C., and those that crossed the membrane were collected and used for MPA studies.” for “CD25.”

`C[C@H]1[C@H](OC(=O)CCC(=O)O)O[C@@H]2O[C@@]3(C)CC[C@H]4[C@H](C)CC[C@@H]1[C@@]24OO3` [artesunate] was tested, and the mobility decrease ([1]; 2 and 4 hours after artesunate treatment) was “smaller and less pronounced mobility decrease”, the mobility decrease ([1]; 6 hours after artesunate treatment, 0.01, 0.05 or 0.1 μg/ml) was 30%-50% and the “separation resolution between iRBCs and uRBCs” value [1] was “almost doubled”. For the same molecule, the “separation resolution between iRBCs and uRBCs” value ([1]; listed as Artesunate) was “doubled”, the “effect on RBC deformability (cell mobility)” value [1] was “stiffening effect on both iRBCs and uRBCs” and the “effect on RBC deformability (cell mobility)” value ([1]; listed as Artesunate) was “significant decrease in cell mobility”.

With `O=CCCCC=O` [glutaraldehyde] the “RBC stiffness / velocity with increasing glutaraldehyde concentration” value ([2]; 30 minutes treatment in PBS, approximately 0.61 Pa/μm) was “progressively stiffer with decreasing velocity”, the “RBC passage at high glutaraldehyde concentration” value ([2]; glutaraldehyde concentrations greater than 0.003%) was “most RBCs were held up at the entrance to the channel” and the “RBCs passed through the channels” value ([2]; glutaraldehyde concentrations less than 0.002%, treatment for 30 minutes) was “more than 95%”.

B1: CCL19: chemokine (R&D Systems) used as chemoattractant for T cells (protein, UniProt Q99731 22-98, looked up)
C-C motif chemokine 19: GTNDAEDCCLSVTQKPIPGYIVRNFHYLLIKDGCRVPAVVFTTLRGRQLCAPPDQPWVERIIQRLQRTSAKMKRRSS
B1 was tested, and the “migrating cells stained CD62L high and CD44 low (naive phenotype)” value [3] was about 90%, the “reduction of modulus from the value measured in the absence of CCL19” value [4] was “more than 2 times” and the cells migrated [5] was about 6.4%.
